This is an account of results in paper PMC3683333, “^11C-LY2428703, a positron emission tomographic radioligand for the metabotropic glutamate receptor 1, is unsuitable for imaging in monkey and human brains” (EJNMMI Research, 2013).

The nature of data set [1]: Plasma free fraction by ultrafiltration, monkey. The class given is in vitro ADME, rhesus monkeys. The procedure: (§1) The plasma free fraction (fp) of ^11C-LY2428703 was measured by ultrafiltration through membrane filters (Centrifree; Millipore, Billerica, MA, USA) as previously described. Briefly, about 740 kBq of ^11C-LY2428703 (approximately 5 μL) was added to 650 μL of plasma. The mixture was incubated at room temperature for 10 min and then processed as described previously. When radioactivities for the filter components were high, they were allowed to decay until they were within the optimal range of the γ-counter. Determining the free fraction during preblocking was done by drawing blood samples after the preblocking treatments were initiated but immediately before administering the radioligand.
To assess the effects of blocking agents on the fP of ^11C-LY2428703, fP was measured in three monkeys both at baseline and after blockade. The first monkey was blocked with cold LY2428703 and fP was measured 2.5 min after blocker injection (which corresponds to the maximal concentration in plasma of LY2428703), and again at 40 min. The other two monkeys were blocked with DCPQ and elacridar, respectively.

Data set [2] can be described thus: Plasma free fraction by ultrafiltration, human. The class given is in vitro ADME. Conditions: humans, n = 3. How it is done:
as §1
PET images were acquired using the GE Advance scanner (GE Healthcare, Milwaukee, WI, USA) for 120 min. An 8-min ^68Ge transmission scan was obtained before the injection of the radiotracer for attenuation correction. The mean injected activity was 328 ± 12 MBq. The specific activity at the time of injection was 87.2 ± 34.7 GBq/μmol, which corresponded to 5.5 ± 2.3 nmol (0.082 ± 0.037 nmol/kg) of carrier. Blood samples (1 mL each) were drawn from the radial artery at 15-s intervals until 150 s, followed by 3-mL samples at 3, 4, 6, 8, 10, 15, 20, 30, 40, and 50 min, and 4.5 mL at 60, 75, 90, and 120 min. The unchanged parent fraction in plasma and fP of ^11C-LY2428703 were determined as described above.

Data set [3] is described as follows: Arterial plasma analysis after injection, monkey. The class given is in vivo, rhesus monkeys. Conditions: after intravenous injection. How it is done:
Plasma analyses were performed on a reverse-phase chromatography C18 column (Novapak, 4 μm, 100 × 8 mm, Waters Corp. Milford, MA, USA) using Radial-Pak® compression module RCM-100 with a sentry pre-column. Human plasma analyses were performed with a mobile phase of […], at a flow rate of 2.5 mL/min; nonhuman primate plasma samples were analyzed with a mobile phase of MeOH/H2O/Et3N, 72.5:27.5:0.1 by volume, at a flow rate of 1.5 mL/min. To compare the outcome from both systems, elution volume is reported rather than retention time.
Arterial plasma was analyzed as previously described. Briefly, after ^11C-LY2428703 injection into either human or nonhuman primate, the input function was determined by periodically drawing anticoagulated blood samples. […] The samples were counted in the γ-counter and centrifuged at 10,000×g for 1 min. […] The precipitates were then counted for radioactivity to allow the calculation of the efficiency of recovery of radioactivity in the acetonitrile. […]
PET images were acquired using either the high-resolution research tomograph (HRRT) or the FOCUS 220 scanner (Siemens/CPS, Knoxville, TN, USA) for 120 min in 33 frames, with frame durations ranging from 30 s to 5 min, and correcting for attenuation and scatter. […] Electrocardiograph, body temperature, heart rate, and respiration rate were measured throughout the experiment. […]

Data set [4] in a line: Pharmacological effects of injection, monkey. The class given is in vivo, rhesus monkeys. The settings on record: after injection. The procedure:
PET images were acquired using either the high-resolution research tomograph (HRRT) or the FOCUS 220 scanner (Siemens/CPS, Knoxville, TN, USA) for 120 min in 33 frames, with frame durations ranging from 30 s to 5 min, and correcting for attenuation and scatter. About 2 h before the PET scan, anesthesia was initiated with ketamine (10 mg/kg IM) and then maintained with 1% to 3% isoflurane. Electrocardiograph, body temperature, heart rate, and respiration rate were measured throughout the experiment. At baseline, the injected activity was 210 ± 51 MBq (specific activity at time of injection 43.2 ± 25.6 GBq/μmol, mass dose 6.9 ± 4.7 nmol or 0.62 ± 0.35 nmol/kg). Tissue time-activity curves were obtained from semi-automatic regions of interest encompassing the whole cerebellum and the rest of the brain. Brain uptake was expressed as standardized uptake value (SUV). Arterial input function was obtained for eight scans: four at baseline, two after blocking with nonradioactive LY2428703, one after blocking with DCPQ, and one after blocking with elacridar. Blood samples (0.5 mL each) were drawn through a port connected to the femoral artery at 15-s intervals until 2 min, followed by 1-mL samples at 3, 5, 10, 30, 60, 90, and 120 min. The plasma time-activity curve was corrected for the fraction of unchanged radioligand following the procedure detailed above.

Data set [5] is described as follows: Brain exposure comparison of five radioligands. The class given is in vivo, human. Conditions: in vivo. The procedure:
Another complicating factor is low delivery to brain (i.e., low drug exposure), which may have cause low brain uptake. We compared five different radioligands from previous studies with regard to exposure to brain (Table 3) and measured the area under the curve of plasma concentration vs. time from 0 to 20 min. […] The effective exposure was thus named because only the free concentration of drug can cross the blood–brain barrier. ^11C-LY2428703 had the highest exposure value among the tracers tested. This high exposure was due to the slow wash-out of the tracer from the vascular compartment and to negligible metabolism in plasma, that is, parent radioligand represented 99% of plasma radioactivity even at the end of the 2-h scanning session.

In the case of `Cc1c(-c2ccc(O[11CH3])cc2)nsc1NC(=O)[C@@H]1C[C@H]1C` [^11C-LY2428703], the results for the “fp (plasma free fraction)” value in data set [1] (average of three baseline monkeys) and in data set [2] were 0.884% and 0.094%, respectively. The fp was found to be 1.25 ± 0.12% in data set [1] (monkey blocked with nonradioactive LY2428703: baseline); 1.12 ± 0.18% in data set [1] (monkey, 2.5 min after blockade with nonradioactive LY2428703); 0.89 ± 0.14% in data set [1] (monkey, 40 min after blockade with nonradioactive LY2428703); 1.074% in data set [1] (monkey, DCPQ blocking experiment: baseline); 1.100% in data set [1] (monkey, after DCPQ blockade); 0.912% in data set [1] (monkey, after elacridar blockade). Besides, the fp in data set [1] (monkey, elacridar blocking experiment: baseline) is recorded as 0.456%. The “time of peak plasma concentration” value in data set [3] is given as 1 to 1.5 min. Further, the “changes in pulse/heart rate, respiratory rate, electrocardiogram” value in data set [4] is “no significant changes”. Moreover, the “Brain peak SUV” value in data set [5] is around 0.5 SUV. Further, the “Effective exposure (E × fp)” value in data set [5] stood at 0.19.
